Measured values as given in patent publication US12195427B2, “MASP-2 inhibitors and methods of use” (priority 2018, dated 2025).

Molecular target: MASP-2 CCP2-SP (Homo sapiens (Human), UniProt O00187)
Experiment: MASP-2 co-crystallization, X-ray crystallography and structure analysis (H-bonds, van der Waals contacts);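 as to Ligand-pharmacophore element distance, pharmacophore element C2: distance from averaged pharmacophore element to bound ligand; missing value means element absent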;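 as to Ligand-pharmacophore element distance, pharmacophore element C3: distance from averaged pharmacophore element to bound ligand; missing value means element absent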;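 as to Ligand-pharmacophore element distance, pharmacophore element C4: distance from averaged pharmacophore element to bound ligand; missing value means element absent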;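 as to Ligand-pharmacophore element distance, pharmacophore element C5: distance from averaged pharmacophore element to bound ligand; missing value means element absent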
Parameters: van der Waals contact distance, MASP-2 HIS 483 atom CD2 / van der Waals contact distance, MASP-2 HIS 483 atom NE2 / van der Waals contact distance, SER 654 C to compound atom / van der Waals contact distance, SER 654 O to compound atom / van der Waals contact distance, TRP 655 C to compound atom / van der Waals contact distance, MASP-2 GLY 528 atom CA / van der Waals contact distance TRP 655 atom CZ3 / van der Waals contact distance TRP 655 atom N / van der Waals contact distance TRP 655 atom CE3 / van der Waals contact distance GLY 656 atom C / van der Waals contact distance GLY 656 atom CA / van der Waals contact distance GLY 656 atom O / van der Waals contact distance, MASP-2 TYR 607 atom CD1 / van der Waals contact distance, MASP-2 PRO 606 atom O / d(C3,CA1) / d(CA1,N1)2 / d(H4,O1) / d(H4,O2) / d(O1,O2) / d(CA1,O2) / d(CA6,O1) / d(CA6,O2) / d(CA1,C5) / d(O2,H3) / d(N2,C2) / d(CA5,N2) / d(N2,C4) / d(N2,C6) / d(N2,CA3) / d(N2,O3) / d(O4,H2): unit not given beside the values
Text: This example illustrates the preparation of recombinant MASP-2 protein, based on UniProt O00187, human mannan-binding lectin serine protease 2. Expression constructs for human MASP-2 CCP2-SP and CCP2-SP-6HIS were generated for recombinant expression in E. coli cells.
Typically, crystallization hits were obtained by screening against […] 96-well crystallization reagent kits (GRAS6, GRAS2, Hampton Research; MORPHEUS, Molecular Dimensions; Wizard 1&2 Cryo, Rigaku Reagents) and crystal growth was inspected by optical microscopy. Crystals were used directly or further optimized for X-ray diffraction. Crystals were captured with cryogenic loops and dipped into liquid nitrogen directly or cryoprotected with a 20% glycerol in crystallization formulation before flash-cooling in liquid nitrogen.
Thereafter crystals are transferred once or twice for soaking within the crystallization solution containing the MASP-2 inhibitor.
Crystals were diffracted with synchrotron X-rays of […] and X-ray diffraction datasets were collected at beamlines SSRL BL9-2, BL14-1, BL12-2 as well as ALS sector 5 using Dectris Pilatus and Eiger detectors. Structures were determined by molecular replacement using portions of the structure 1Q3X as search models and partially refined with Buster 2.10.2 or Refmac 5.8. […] When multiple ligand poses were observed, for instance arising from multiple molecules in the asymmetric unit or refined dual poses within the same molecule, only one pose was selected and analyzed.
LigPlot+ calls these ‘nonbonded contacts’ or ‘hydrophobic contacts’. Despite the name, there are atom pairings that include possible H-bonds. Thus, in some instances, the Table A2 also contains H-bond interactions.

[1] = Table A5-1 pharmacophore: distance between elements, S2/S1 region
[2] = Table A5-2 pharmacophore distance, S3/S4 region
[3] = Table A7-1, between pharmacophore elements of the bound compound
[4] = Table A8-6, nearest protein atom in cell to the left

Chain of MASP-2 CCP2-SP (O00187 445-686): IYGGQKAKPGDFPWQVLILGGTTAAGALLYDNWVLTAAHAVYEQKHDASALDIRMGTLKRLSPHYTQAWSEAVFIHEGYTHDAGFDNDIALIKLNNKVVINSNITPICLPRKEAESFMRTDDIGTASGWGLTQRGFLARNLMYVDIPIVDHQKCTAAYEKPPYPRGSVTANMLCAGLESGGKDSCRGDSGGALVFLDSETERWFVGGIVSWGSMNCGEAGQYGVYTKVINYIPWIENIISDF
Chain of MASP-2 CCP2-SP (O00187 364-432 partner): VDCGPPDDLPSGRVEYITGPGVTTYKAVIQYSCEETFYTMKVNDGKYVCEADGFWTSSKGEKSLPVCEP

Structure (SMILES): C[C@H](NC(=O)[C@H](N)CCCc1ccccc1)C(=O)NCc1ccc(C(=N)N)cc1.Cl.Cl [1042_2]
- Ligand-pharmacophore element distance, pharmacophore element C2 (Table A4-1, element C2): 1.33
- Ligand-pharmacophore element distance, pharmacophore element C3 (Table A4-1, element C3): 0
- Ligand-pharmacophore element distance, pharmacophore element C4 (Table A4-1, element C4): 0
- Ligand-pharmacophore element distance, pharmacophore element C5 (Table A4-1, element C5): 0
- Ligand-pharmacophore element distance, pharmacophore element C6 (Table A4-1, element C6): 0
- Ligand-pharmacophore element distance, pharmacophore element C7 (Table A4-1, element C7): 0
- Ligand-pharmacophore element distance, pharmacophore element CA1 (Table A4-1, element CA1): 0.5
- Ligand-pharmacophore element distance, pharmacophore element CA2 (Table A4-1, element CA2): 0.72
- Ligand-pharmacophore element distance, pharmacophore element CA3 (Table A4-1, element CA3): 0
- Ligand-pharmacophore element distance, pharmacophore element CA4 (Table A4-1, element CA4): 0
- Ligand-pharmacophore element distance, pharmacophore element CA5 (Table A4-1, element CA5): 0
- Ligand-pharmacophore element distance, pharmacophore element CA6 (Table A4-1, element CA6): 0
- Ligand-pharmacophore element distance, pharmacophore element H1 (Table A4-2, element H1): 0
- Ligand-pharmacophore element distance, pharmacophore element H2 (Table A4-2, element H2): 0
- Ligand-pharmacophore element distance, pharmacophore element H3 (Table A4-2, element H3): 5.3
- Ligand-pharmacophore element distance, pharmacophore element H4 (Table A4-2, element H4): 3.52
- Ligand-pharmacophore element distance, pharmacophore element N1 (Table A4-2, element N1): 1.61
- Ligand-pharmacophore element distance, pharmacophore element N2 (Table A4-2, element N2): 1.72
- Ligand-pharmacophore element distance, pharmacophore element O1 (Table A4-2, element O1): 3.1
- Ligand-pharmacophore element distance, pharmacophore element O2 (Table A4-2, element O2): 0.75
- Ligand-pharmacophore element distance, pharmacophore element O3 (Table A4-2, element O3): 0
- Ligand-pharmacophore element distance, pharmacophore element O4 (Table A4-2, element O4): 0
- d(CA1,N1) [1]: 3.61
- d(CA1,O1) [1]: 4.47
- d(CA1,O2) [1]: 4.74
- d(H4,O1) [1]: 4.02
- d(H4,O2) [1]: 4.01
- d(O1,O2) [1]: 3.46
- d(N2,C2) [2]: 4.38
- d(N2,CA2) [2]: 7.44
- d(O2,H3) [2]: 5.89
- d(O2,N2) [2]: 2.86
- a(CA1, O1, O2) (Table A6-1 pharmacophore angle): 116.12
- a(O1, O2, H4) (Table A6-1 pharmacophore angle): 128.91
- A(N1, CA1, O1) a) (Table A6-1 pharmacophore angle, all compounds with protonatable center N1 except Methyl-amino-pyridine): 164.17
- a(O1, O2, H3) (Table A6-2 pharmacophore angle): 152.56
- a(O1, O2, N2) (Table A6-2 pharmacophore angle): 148.96
- a(O2, N2, C2) (Table A6-2 pharmacophore angle): 139.99
- a(O2, N2, CA2) (Table A6-2 pharmacophore angle): 158.67
- Pharmacophore torsion angle a(H4, O1, O2, H3) [3]: −9.33
- Pharmacophore torsion angle a(H4, O1, O2, N2) [3]: 44.33
- Pharmacophore torsion angle a(N1, CA1, O2, H4) [3]: 69.40
- Pharmacophore torsion angle a(O1, H4, O2, CA1) [3]: 68.80
- Pharmacophore torsion angle a(O1, O2, N2, C2) [3]: 151.54
- Pharmacophore torsion angle a(O1, O2, N2, CA2) (Table A7-2, between pharmacophore elements of the bound compound): 159.77
- Pharmacophore protein distance to MET_658 (first MET_658 column) (Table A8-6, 6th residue column, nearest protein atom in cell to the left): 1.07
- Pharmacophore protein distance to MET_658 (second MET_658 column) (Table A8-6, 9th residue column, nearest protein atom in cell to the left): 4.17
- Pharmacophore protein distance to GLY_528 [4]: 4.01
- Pharmacophore protein distance to PHE_529 [4]: 3.09
- Pharmacophore protein distance to PRO_608 [4]: 3.74
- Pharmacophore protein distance to SER_611 [4]: 2.54
- Pharmacophore protein distance to TRP_655 (Table A8-6, pharmacophore elements C6, CA3, O3, H1, nearest protein atom in cell to the left): 3.27
